We go through seven molecules from patent US10144756B2, “Stable solid forms of regadenoson” (Euticals S.p.A., priority 2013, dated 2018).

Molecules are shown by their SMILES. Like-named read-outs stand apart in the source and are kept apart here.

Assay in data set [1]: not given
This is another data set of the same source.

For data set [2] the following is noted: U.S. Pat. No. 8,106,183 / WO2012149196, cited from earlier work.
The nature of data set [3]: HPLC stability of solid forms stored at 90% RH and 20-25° C. Particulars: for HPLC stability data (chromatographic purity): 90% RH and 20-25° C.
Data set [4] can be described thus: HPLC stability of solid forms stored at 80° C. in inert atmosphere. The note with it: for HPLC stability data (chromatographic purity): 80° C. in inert atmosphere.
A short description of data set [5]: Thermal treatment of polymorphic form A at 190-200° C. (prior-art route to amorphous form). The format is physicochemical. The note with it: thermal treatment at 190-200° C. On the procedure: In U.S. Pat. No. 8,106,183 the method of preparation of an amorphous form of Regadenoson is described by heating polymorphic form A at 200° C.; this solid state, differently by polymorphic forms A-C, was not described by the authors by an X-ray diffraction spectrum in order to identify possible characteristic halo-peaks (broad peaks). This amorphous form was prepared according to U.S. Pat. No. 8,106,183 by heating the polymorphic form A over the melting point value of this substance (that for polymorphic form A is 194.5° C.). This method is not industrially applicable and leads to the formation of several side products. […] To the best of our knowledge, this is the only described method for the preparation of amorphous Regadenoson.

On to `CNC(=O)c1cnn(-c2nc(N)c3ncn([C@@H]4O[C@H](CO)[C@@H](O)[C@H]4O)c3n2)c1` [Form G, (1-{9-[(4S,2R,3R,5R)-3,4-dihydroxy-5-(hydroxymethyl)oxolan-2-yl]-6-aminopurin-2yl}pyrazol-4-yl)-N-methylcarboxamide], for which the HPLC stability data (chromatographic purity) (0 h) amounted to 99.8%; the HPLC stability data (chromatographic purity) (72 h) came to 99.8%; the HPLC stability data (chromatographic purity) (96 h) was found to be 99.8%; the HPLC stability data (chromatographic purity) in data set [1] (0 h) is 99.8%; the HPLC stability data (chromatographic purity) in data set [1] (96 h) was found to be 99.8%.
As to `CNC(=O)c1cnn(-c2nc(N)c3ncn([C@@H]4O[C@H](CO)[C@@H](O)[C@H]4O)c3n2)c1` [Polymorph C], the “stability of the solid form as described in the literature” value (shortened to “stability of the solid form as described”) in data set [2] is “unstable at high temperatures”.
For the molecule `CNC(=O)c1cnn(-c2nc(N)c3ncn([C@@H]4O[C@H](CO)[C@@H](O)[C@H]4O)c3n2)c1` [Halo Amorphous, (1-{9-[(4S,2R,3R,5R)-3,4-dihydroxy-5-(hydroxymethyl)oxolan-2-yl]-6-aminopurin-2yl}pyrazol-4-yl)-N-methylcarboxamide], the HPLC stability data (chromatographic purity) in data set [3] (time 0 hours), in data set [3] (time 96 hours), in data set [4] (time 0 hours), in data set [4] (time 72 hours) and in data set [4] (time 96 hours) was 99.7% in each case. Besides, the “formation of degradation products” value is given as “does not give origin to degradation products” in data set [3] (exposed to moisture, 25° C./90% RH up to 96 hours) and “does not give origin to degradation products” in data set [4] (dry conditions, 80° C. up to 96 hours). Besides, the stability to heating entry in data set [4] (80° C., protected atmosphere / dry conditions, up to 96 hours) was “stable to the heating”.
As to `CNC(=O)c1cnn(-c2nc(N)c3ncn([C@@H]4O[C@H](CO)[C@@H](O)[C@H]4O)c3n2)c1` [Form A, (1-{9-[(4S,2R,3R,5R)-3,4-dihydroxy-5-(hydroxymethyl)oxolan-2-yl]-6-aminopurin-2yl}pyrazol-4-yl)-N-methylcarboxamide, reference compound], the “stability of the solid form as described” value in data set [2] (listed as Regadenoson Form A) was “more stable than polymorphs B and C”. Moreover, the HPLC stability data (chromatographic purity) in data set [3] (time 0 hours), in data set [3] (time 96 hours), in data set [4] (time 0 hours), in data set [4] (time 72 hours) and in data set [4] (time 96 hours) was 99.5% in each case. Besides, the “decrease of chromatographic purity” value in data set [5] was “about 30%”. In data set [5] (form A is white before), the “change in the color of the sample” value is on record as “the color changes to brown”.
`CNC(=O)c1cnn(-c2nc(N)c3ncn([C@@H]4O[C@H](CO)[C@@H](O)[C@H]4O)c3n2)c1` [Form F, (1-{9-[(4S,2R,3R,5R)-3,4-dihydroxy-5-(hydroxymethyl)oxolan-2-yl]-6-aminopurin-2yl}pyrazol-4-yl)-N-methylcarboxamide] had an HPLC stability data (chromatographic purity) (0 h) of 99.8%; an HPLC stability data (chromatographic purity) (72 h) of 99.7%; an HPLC stability data (chromatographic purity) (96 h) of 99.7%; an HPLC stability data (chromatographic purity) in data set [1] (0 h) of 99.8%; an HPLC stability data (chromatographic purity) in data set [1] (96 h) of 99.8%.
For `CNC(=O)c1cnn(-c2nc(N)c3ncn([C@@H]4O[C@H](CO)[C@@H](O)[C@H]4O)c3n2)c1` [Form E], the HPLC stability data (chromatographic purity) (0 h) was 99.6%; the HPLC stability data (chromatographic purity) (72 h) is 99.4%; the HPLC stability data (chromatographic purity) (96 h) stood at 99.6%; the HPLC stability data (chromatographic purity) in data set [1] (0 h) came out at 99.6%; the HPLC stability data (chromatographic purity) in data set [1] (96 h) was determined as 99.7%.
Turning to `CNC(=O)c1cnn(-c2nc(N)c3ncn([C@@H]4O[C@H](CO)[C@@H](O)[C@H]4O)c3n2)c1` [Form D], the “stability of the solid form as described” value in data set [2] is listed as “stable under inert conditions”.
